# Test: Human HepG2 cell viability assay in 384 well format
# Type: toxicity, cell-based
# Parameters: dose 125 nL, time 70.5 hour; cytotoxicity at 70.5 h: concentration not given beside the values
# Conditions: HepG2 cells, read-out: Inhibition
row,SMILES,cytotoxicity at 70.5 h [%]
1,c1ccn2c(C3CCCN(c4ncnc5c4CCNC5)C3)nnc2c1 (stereo not given),8.25
2,Cc1cc(C(F)(F)F)nc(CNC(=O)CCC2CCCN(C)C2)n1 (stereo not given),-6.3
3,c1cc2c(cc1CN1CCCC3(CCOC3)C1)OCO2 (stereo not given),41.1
4,CCc1nc(CNc2ccc(-c3nc(C4CC4)no3)cn2)no1,-9.74
5,O[C@@]1(CNCC2(Cn3cccn3)CC2)CCCN2CCCC[C@@H]21,-11.3
6,C[C@@H]1CN(c2ccc(C#N)cn2)CC[C@@]1(O)C1CCOCC1,27.2
7,COCCN(C)C[C@@H]1CN(C(=O)c2sc3ccccc3c2C)C[C@@H]1CO,-6.69
8,CN1CCCN(c2cnn(Cc3ccc(C(C)(C)C)cc3)c(=O)c2)CC1,-8.93
9,Cc1cc(NCc2cc3n(n2)CCCN(C(=O)C2CCC2)C3)nc(N)n1,-1.07
10,CC(C)N(C)S(=O)(=O)c1ccc2c(c1)CCN(C(=O)c1ccccn1)C2,22.8
11,CCOc1ccccc1N1CCN(c2nnc(C)o2)CC1,-13.5
12,CS(=O)(=O)N1CCC(Oc2ccc(C(=O)NCCC(N)=O)cc2Cl)CC1,6.15
13,O=C1OCCN1CCNc1ncc2c(n1)CCN2c1ccccc1,-6.11
14,CCn1c(N)nc2cc(C(=O)NCCc3ccccc3F)cnc21,-28.6
15,COc1ccccc1OC1CN(C(=O)c2ccc(C(C)=O)s2)C1,-10.9
16,CC(Cn1ccnc1)NCc1n[nH]c2c1CCC2 (stereo not given),-20.8
17,O=C(NCC(F)(F)F)c1coc(COc2cccc(F)c2)n1,14.5
18,CC(C)c1ccc(N2CCc3onc(-c4ccc(F)c(F)c4)c3C2)nn1,-6.74
19,CN(C)C(=O)N1CCC(C(=O)N2CCOC(CC3CCCCC3)C2)CC1 (stereo not given),-0.504
20,CC(=O)NCCC1CCCCN1S(=O)(=O)c1cccc(Cl)c1 (stereo not given),36.4
21,O=C1CCC2(CCN(CC[C@@H](O)c3ccccc3)CC2)CN1CC1CC1,-5.97
22,Cc1nc[nH]c1CNC1CC(=O)N(CCc2cccc(Cl)c2)C1 (stereo not given),-2.03

row,SMILES,cytotoxicity at 70.5 h [%]
1,Cc1cc(C(=O)N2C[C@@H]3[C@@H](CN(C)CCc4ccccn4)[C@@H]3C2)c(C)o1,25.1
2,CCOC(=O)N1CCC(NCC2CCN(c3cnn(C)c(=O)c3)C2)CC1 (stereo not given),-6.78
3,CN(C)C(=O)c1ccc2c(c1)nc(N1CC[C@H](O)C1)n2C,19.5
4,Cc1nc(C)n(CCCNc2ncnc3onc(C)c23)n1,-3.47
5,CCn1cnc(NC(=O)N2CCC(c3ccc(Cl)cc3)C2)n1 (stereo not given),11.3
6,Cc1cc(C(=O)N2C[C@@H](CN3CCOCC3)C[C@H](CO)C2)nc(C)n1,-5.29
7,Cc1cc(N2CCC(c3ncc[nH]3)CC2)c2ccccc2n1,-7.19
8,CCc1cc(NCCNC(C)=O)nc(N2CCOCC2)n1,-13.2
9,COc1ccc(C(=O)NCc2cc(N3CCOCC3)ncn2)o1,17.5
10,CC(C)CN1C(=O)CC[C@H]2CN(C(=O)Cn3ccccc3=O)CC[C@H]21,-0.419
11,O=c1cc(N2CCCCC2)cnn1Cc1noc(C2CCCO2)n1 (stereo not given),-10.8
12,O=C(c1ccnc(-n2cnnc2)c1)N1CCCC2(CCNC2)C1 (stereo not given),-9.32
13,CCn1nc(C)cc1S(=O)(=O)N1CCC2(CCCN(C(C)C)C2=O)C1 (stereo not given),-1.6
14,Cc1[nH]c2c(C)ccc(C)c2c1CC(=O)NCc1csc(N(C)C)n1,17.8
15,COc1cccc2c1OCC(C(=O)NCc1nc3c(s1)CCCC3)C2 (stereo not given),21.6
16,Cc1cc(OCC(O)c2nc3c([nH]2)CC(C)(C)CNC3=O)ccc1Cl (stereo not given),-12.4
17,O=c1cc(C2CCNCC2)nc(CCc2ccccn2)[nH]1,-2.52
18,Cc1csc2c(N3CCC(NCCCc4cnn(C)c4)CC3)ncnc12,2.87
19,Cn1ccnc1-c1cnn(CC(=O)Nc2ccnn2C)c1,-3
20,O=C(Nc1cnc2n1CCCC2)c1cccc(-n2cnnc2)c1,-16.8
21,Cc1cc(N2CCN(C(=O)c3cnn(C(C)C)c3)CC2)nc(N)n1,-4.23
22,Cc1nn(C)c(C)c1-c1cc(-c2cnn(C)c2C2CC2)c(C#N)c(N)n1,-12.7

row,SMILES,cytotoxicity at 70.5 h [%]
1,CC(C)c1nc(CN(C)C(=O)CNS(=O)(=O)c2cccs2)no1,46.6
2,NC(=O)CN1CCC(C(=O)NCC(O)c2cccc(F)c2)CC1 (stereo not given),-10.5
3,Fc1cccc(C2CCCCN2Cc2nc(-c3cnccn3)no2)c1 (stereo not given),-1.63
4,CSCCCN1C[C@H](NC(=O)c2cnn(C)c2)[C@@H](C2CC2)C1,-7.31
5,CCS(=O)(=O)N1CCCC(c2nccn2Cc2ccccn2)C1 (stereo not given),-2.1
6,CCS(=O)(=O)c1ncc(CN2CCCC2)n1CCc1ccccc1,-12.5
7,O=C(NCc1ccccc1-n1cccn1)C1CC2(CCNCC2)CN1 (stereo not given),-1.74
8,CC(C)c1noc(C2CCCN2C(=O)CN2CCc3ccccc32)n1 (stereo not given),23.7
9,NC(=O)c1cc2c(nc1CCOCc1ccccc1)CCC2,-8.58
10,CCN1CCN(C(=O)CCC2CCN(C(C)CCC(=O)OC)CC2)CC1 (stereo not given),8.92
11,CSc1ncc(CNCC2(N3CCCCC3)Cc3ccccc3C2)cn1,-1.26
12,O=C(NCc1cn2c(n1)SCC2)c1cn(CCN2CCCCC2)nn1,17.2
13,CNc1ccnc(N2CCCC(C(=O)c3ccccn3)C2)n1 (stereo not given),24.1
14,Oc1ccc(CCC2CCCCN2Cc2noc(C3CC3)n2)cc1 (stereo not given),15.5
15,O=c1cc(N2CCNCC2)cnn1Cc1noc(C2CCCC2)n1,-23.8
16,COc1cccc(OCCNS(C)(=O)=O)c1,1.43
17,CCC(=O)N1CCN(c2cc(-n3cnc(C)c3C)nc(C)n2)CC1,20.4
18,CN(Cc1nccn1C)CC1CCOc2ccccc2C1 (stereo not given),22.3
19,CC(=O)N1CCN(c2cc(-n3cnc(C)c3C)nc(C)n2)CC1,-6.25
20,COCc1nc2ncc3c(=O)n(-c4cccc(OC)c4)ccc3n2n1,27.8
21,Cc1ccc(C(=O)Nc2ccc(OC3CCN(C)CC3)cc2)c(C)c1,-5.87
22,CCC(=O)Nc1cccc(OCC(=O)N(C)Cc2nccn2CC)c1,-2.37

row,SMILES,cytotoxicity at 70.5 h [%]
1,Cc1ccc2nc(N3CCN(CC(=O)NC(C)C)CC3)cc(C)c2c1,-1.6
2,Cc1ccc(N2CCN(C(=O)COc3ncccn3)CC2)nn1,-7.37
3,CC(C)c1ccc(OCC(=O)N(C)C)cc1,-9.35
4,Cc1ccc(C)c(C(=O)Nc2ccc(OC3CCN(C)CC3)cc2)c1,-6.52
5,O=C(NCCCc1ccc(F)cc1)c1ccc(N2CCOCC2)cc1,2.69
6,CCc1noc(-c2cccc(NC(=O)C(C)(C)C)c2)n1,-11.2
7,Cc1cc(C(=O)NC(C)c2nnn[nH]2)c2cccc(C)c2n1 (stereo not given),-0.0967
8,FC(F)(F)c1nc(NC2CCCCC2)c2ccccc2n1,-10.5
9,Cc1cc(C)nc(N2C[C@H]3OC(=O)N(CCc4cccc(Cl)c4)[C@H]3C2)n1,-0.529
10,COCc1nc2ncc3c(=O)n(-c4ccc(OC)cc4)ccc3n2n1,-5.86
11,Cc1ccc(N2CC[C@]3(O)CCN(CCN4CCCC4=O)C[C@@H]3C2)nn1,0.21
12,C[C@@H]1CN(CC(C)(C)N2CCCCC2)C[C@@]1(O)C1CC1,-1.88
13,Cc1ncc(C(=O)NCCOc2ccccc2F)c(C)n1,7.2
14,COc1ccc(C(C(=O)O)N2CCN(C3CCCCC3)CC2)cc1OC (stereo not given),13.6
15,Cc1ccc(CN2CCN(Cc3ccncc3)[C@@H]3CS(=O)(=O)C[C@@H]32)cc1,-7.92
16,CC(C)[C@H]1CN(CCS(C)(=O)=O)C[C@@H]1NC(=O)c1ccc(=O)[nH]c1,-3.99
17,N#Cc1ccc(C(=O)N2CCC(c3ncc[nH]3)CC2)cn1,-7.49
18,CNc1ncc(CN(C)c2nc(C3CCCC3)nc3c2cnn3C)cn1,6.56
19,Cn1cccc1C(=O)N1CCC2(CCCN(CC3CC3)C2=O)C1 (stereo not given),-4.86
20,COc1nccnc1N1CCN(Cc2ccc3c(c2)OCO3)C(=O)C1,20.7
21,COc1ccc(CC(=O)N2CC[C@H](CO)[C@H](O)C2)c(OC)c1,-7.77
22,Cc1cc(C(=O)N2CCC(n3cc(CO)nn3)CC2)ccc1F,-5.39

row,SMILES,cytotoxicity at 70.5 h [%]
1,CN(C)S(=O)(=O)N1CC[C@]2(O)CCN(Cc3cccc(C#N)c3)C[C@@H]2C1,9.63
2,CCn1c(C2CCNCC2)nn(CCCc2ccccc2)c1=O,-5.09
3,O=C(CCC(F)(F)F)N1CCCC(c2ncc[nH]2)C1 (stereo not given),42.3
4,O=C1[C@H]2CC[C@H](CN(Cc3nnc(C4CC4)o3)C2)N1Cc1cscn1,18.5
5,COCCOC1CCN(C(C(=O)O)c2ccc3c(c2)OCO3)CC1 (stereo not given),-6.06
6,CC(C)Oc1ccc2c(NC(=O)CN(C)C)nn(CC(F)(F)F)c2c1,-19
7,N#CC1CCN(C(=O)CN2CC(c3ccccc3)CC2=O)CC1 (stereo not given),-4.6
8,CN(C)C1CCCN(Cc2cccc(Cn3cccn3)c2)CC1 (stereo not given),-1.58
9,CN(C)S(=O)(=O)N1CCCC(CCC(=O)Nc2ccc(Cl)cc2)C1 (stereo not given),42.2
10,O=C(NCc1ccc2c(c1)CCCO2)c1ccccc1C1CCNC1 (stereo not given),-20.6
11,CCc1ccc(CN(C)C(=O)c2cnc3c(c2)nc(N)n3CC)nc1,-8.01
12,Cc1cccc2cc(CN3CCC(O)(CN4CCCC4)CC3)c(=O)[nH]c12,-0.171
13,CC(C)=CCN1CCN(Cc2ncc[nH]2)[C@H]2CS(=O)(=O)C[C@H]21,-4.55
14,COCc1ncc(CN2CC[C@@](O)(COC)C(C)(C)C2)cn1,-18.6
15,CN(Cc1n[nH]c(=O)n1Cc1cccs1)S(C)(=O)=O,-0.816
16,Cn1cccc1-c1cc(C(=O)NCCCc2csc(N)n2)[nH]n1,18.4
17,CN(Cc1ccc2nsnc2c1)C(=O)CCc1cc2n(n1)CCCNC2,-8.3
18,Cc1cnc(C)c(-c2cc(O)c3c(c2)CN(Cc2nccs2)CCO3)n1,-4.63
19,CN(C)C(=O)N1CCn2nc(CNC(=O)CCc3ccccn3)cc2C1,13.6
20,Cc1ccccc1[C@@H]1CN(Cc2ccc(C(F)(F)F)nc2)C[C@H]1C(=O)O,-4.46
21,COc1ncccc1CN1CCc2[nH]cnc2C1CCSC (stereo not given),25.1
22,CSc1ncccc1C(=O)N1CCC2(CC1)OCCCC2O (stereo not given),-3.78

# Source: ChEMBL document CHEMBL3507680, “University of Dundee, Gates Library screen for HepG2 cell viability”
